Paper PMC8684776, “Discovery and characterization of potent And‐1 inhibitors for cancer treatment” (Clinical and Translational Medicine, 2021)

Assays:
And‐1 = biological target: T1, And‐1 (Homo sapiens, UniProt O75717); assay: Immunoblot of And‐1 expression in IGROV1 cells; assay type: cell-based; conditions: read-out: IC50, And‐1 expression
T1 construct: expressed in transfected cells
T1 sequence (O75717 1-1129): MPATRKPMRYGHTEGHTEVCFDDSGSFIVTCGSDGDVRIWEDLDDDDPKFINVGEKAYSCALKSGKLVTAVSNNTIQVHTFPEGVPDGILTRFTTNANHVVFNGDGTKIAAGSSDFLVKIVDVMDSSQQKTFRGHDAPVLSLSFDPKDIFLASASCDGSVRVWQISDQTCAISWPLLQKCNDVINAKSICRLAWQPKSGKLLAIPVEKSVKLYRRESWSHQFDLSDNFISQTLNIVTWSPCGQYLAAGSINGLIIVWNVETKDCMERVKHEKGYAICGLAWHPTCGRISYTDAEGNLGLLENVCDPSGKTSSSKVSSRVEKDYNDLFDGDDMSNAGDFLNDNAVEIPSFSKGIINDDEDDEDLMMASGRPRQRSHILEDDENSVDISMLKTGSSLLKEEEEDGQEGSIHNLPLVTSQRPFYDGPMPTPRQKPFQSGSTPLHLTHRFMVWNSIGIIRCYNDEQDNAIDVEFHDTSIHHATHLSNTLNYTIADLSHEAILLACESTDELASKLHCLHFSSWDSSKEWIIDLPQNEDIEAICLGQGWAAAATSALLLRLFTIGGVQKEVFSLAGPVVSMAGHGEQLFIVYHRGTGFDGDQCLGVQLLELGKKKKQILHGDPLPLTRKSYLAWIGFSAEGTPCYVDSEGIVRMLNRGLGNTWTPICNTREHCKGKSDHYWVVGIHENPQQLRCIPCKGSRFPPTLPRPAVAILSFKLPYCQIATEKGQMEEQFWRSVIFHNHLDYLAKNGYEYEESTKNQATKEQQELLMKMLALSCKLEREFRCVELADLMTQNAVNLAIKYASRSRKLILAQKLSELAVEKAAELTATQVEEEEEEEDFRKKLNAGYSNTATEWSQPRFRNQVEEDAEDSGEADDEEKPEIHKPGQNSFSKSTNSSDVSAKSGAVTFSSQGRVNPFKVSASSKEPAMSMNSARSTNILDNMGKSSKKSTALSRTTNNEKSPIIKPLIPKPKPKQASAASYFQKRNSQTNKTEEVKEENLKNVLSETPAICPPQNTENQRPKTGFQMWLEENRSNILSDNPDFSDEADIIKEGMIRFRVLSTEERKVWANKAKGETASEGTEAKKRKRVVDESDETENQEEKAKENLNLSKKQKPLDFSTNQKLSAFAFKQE
From the text: The assay was as previously described.[45]
To evaluate whether And‐1 is required for tumor survival, we examined the dependence of a broad range of tumor cells on And‐1 by using dependency score analysis from DepMap (https://depmap.org/portal/). […] To identify And‐1 specific pharmacologic inhibitor, we established an HTS assay to identify small molecules that can inhibit And‐1 by inducing its degradation. To this end, we first established two stable cell lines, HEK293T‐And‐1‐Luc expressing And‐1 protein fused to a luciferase reporter gene, and HEK293T‐Luc expressing luciferase only (Figure 1B). HEK293T‐And‐1‐Luc cells allow us to monitor And‐1 protein levels by measuring luciferase activity in a high‐throughput manner. Using these cell lines, we conducted a screening for And‐1 inhibitors against a LOPAC small molecule library by using a quantitative HTS (qHTS) as we described previously.[46]
(A) Dependency score of WDHD1/And‐1 analyzed by DepMap. […] (B) Establishment of HEK293T‐And‐1‐Luc and HEK293T‐Luc cells for the high‐throughput screen (HTS). (C) Schematic diagram of quantitative HTS (qHTS) for And‐1 inhibitors. (D) Immunoblot analyses to detect And‐1 expression in IGROV1 cells treated with resveratrol at indicated concentrations. (E) Chemical structures of resveratrol and its three analogs as indicated. (F) Left, immunoblot analyses to detect And‐1 expression in IGROV1 cells treated with And‐1 inhibitors at the indicated concentration. Right, quantification of And‐1 expression shown in the left panel.

IGROV1 CR cells = assay: Clonogenic assay, combination with cisplatin; assay type: cell-based, human
Procedure: Synergy of each combination was indicated as combination index (CI) values. […] (C) Tumors of IGROV1 CR xenograft treated with control (vehicle), cisplatin (8 mg/kg/day intraperitoneally), CH3 (20 mg/kg/3days intraperitoneally), or a combination of CH3 and cisplatin for 3 weeks. Ruler scale is in centimeters. (D) Growth curves of IGROV1 CR xenografts. […] (E) IHC staining against And‐1 antibodies of tumor samples from four treated groups of mice. Scale bar: 50 μm. […] Ruler scale is in centimeters. (G) Growth curves of IGROV1 CR xenografts. […] (H) IHC staining against And‐1 antibodies of tumor samples from four treated groups of mice. Scale bar: 50 μm.

IGROV1 xenografts = assay: IGROV1 xenograft in nude mice; assay type: in vivo, mouse
Procedure: (A) Tumours of IGROV1 xenograft treated with vehicle or CH3 (20 or 40 mg/kg/3days intraperitoneally) for 3 weeks. Ruler scale is in centimeters. (B) Growth curves of IGROV1 xenografts. Data are represented as means ± SEM. ****p < 0.0001. (C) IHC staining against acidic nucleoplasmic DNA‐binding protein 1 (And‐1) and cleaved‐caspase3 antibodies of tumor samples from 3 groups of mice. Scale bar: 50 μm. Lower panel, quantification of And‐1and cleaved‐caspase 3 IHC score in tumors treated in A. ****p < 0.0001. (D) Tumors of MCF7 xenograft treated with vehicle or CH3 (20 or 40 mg/kg/3days intraperitoneally) for 3 weeks. Ruler scale is in centimeters. (E) Growth curves of MCF7 xenografts. Data are represented as means ± SEM. ****p < 0.0001. (F) IHC staining against And‐1 and cleaved‐caspase3 antibodies of tumor samples from three treated groups of mice. Scale bar: 50 μm. Lower panel, quantification of And‐1and cleaved‐caspase 3 IHC score in tumors treated in (D). *p < 0.1; **p < 0.01; ***p < 0.001; ****p < 0.0001
into subsequent experiment groups.
represent the longest and shortest diameters, respectively. During the drug treatment, the tumor volume
and body weight were measured. […]

OB1OCc2cc(/C=C/c3ccc(Cl)c(Cl)c3)ccc21 [CH3, (E)‐5‐(3,4‐dichlorostyryl)benzo[c][1,2]oxaborol‐1(3H)‐ol]
DC50 (And‐1): 2080 nM
synergy with cisplatin to reduce clonogenic capacity (IGROV1 CR cells): great synergy with cisplatin
And‐1 expression in tumor tissues (IHC) (IGROV1 xenografts; IGROV1 xenograft tumors): inhibited And‐1 expression
cleaved caspase‐3 expression in tumor tissues (IHC) (IGROV1 xenografts; IGROV1 xenograft tumors): induced the expression of cleaved caspase‐3
tumor growth (IGROV1 xenografts; ovarian IGROV1 xenografts, nude mice, 20 mg/kg or 40 mg/kg intraperitoneal, 3 weeks): significantly reduced tumor growth
